Laboratory results reported in PMC6941144 (ACS chemical biology, 2019).

How the values were obtained:
[1] = tested on: HIV-1 protease 2Mut (V82F, I84V); test: Enzyme inhibition; format: biochemical; conditions: primary active site mutations (2 mutations); abstract
HIV-1 protease 9Mut-A71V = HIV-1 protease 9Mut-A71V (Human immunodeficiency virus type 1 group M subtype B, UniProt P12497, A559V/G504E/I501V/I572V/K533I/L521F/M534I/Q495K/V520I/V570F); conditions: relative to 8Mut; ΔG = RTln[Ki]
HIV-1 protease 9Mut-L76V = HIV-1 protease 9Mut-L76V (Human immunodeficiency virus type 1 group M subtype B, UniProt P12497, G504E/I501V/I572V/K533I/L521F/L564V/M534I/Q495K/V520I/V570F); conditions: relative to 8Mut; ΔG = RTln[Ki]
HIV-1 protease 11Mut = HIV-1 protease 11Mut (Human immunodeficiency virus type 1 group M subtype B, UniProt P12497, A559V/G504E/I501V/I542L/I572V/K533I/L521F/L564V/M534I/Q495K/V520I/V570F); conditions: 11Mut vs WT
HIV-1 protease 10Mut = HIV-1 protease 10Mut (Human immunodeficiency virus type 1 group M subtype B, UniProt P12497, A559V/G504E/I501V/I572V/K533I/L521F/L564V/M534I/Q495K/V520I/V570F); conditions: relative to 8Mut; ΔG = RTln[Ki]

CC(C)CN(C[C@@H](O)[C@H](Cc1ccccc1)NC(=O)O[C@H]1CO[C@H]2OCC[C@H]21)S(=O)(=O)c1ccc(N)cc1 [DRV, Darunavir]
loss in potency [1]: ~ 50 fold | ΔΔG9Mut-A71V (change in free energy of inhibitor binding) (HIV-1 protease 9Mut-A71V): 0.35 ± 0.07 kcal/mol | ΔΔG9Mut-L76V (change in free energy of inhibitor binding) (HIV-1 protease 9Mut-L76V): 1.55 ± 0.10 kcal/mol | decrease in inhibition compared to WT (HIV-1 protease 11Mut): 152,000 fold | ΔΔG10Mut (change in free energy of inhibitor binding) (HIV-1 protease 10Mut): 1.45 ± 0.05 kcal/mol
